Like-named read-outs stand apart in the source and are kept apart here.
Assays:
[1] = system: hepatocellular carcinomas; settings: cited from earlier work
[2] = system: Hep G2 cells; test: Cell viability study: MTT assay; type: cell-based, human; settings: Homo sapiens, HepG2, Hep G2, 10 μM, read-out: viability, % of control
Protocol: The experiments detailed below involve human hepatoma cell lines Hep3B (ATCC designation HB 8064), HepG2 (ATCC designation HB 8065) and HA22T/VGH, and murine hepatoma cell line Hepa 1-6. These cells were cultured in DMEM (GIBCO, BRL) containing 10% fetal bovine serum (Hyclone), 0.01 mg/ml gentamycin and 0.1 mM non-essential amino acid. Cells were grown in a CO2 incubator at 37° C., with 5% CO2 and 95% filtered air.
Paclitaxel was dissolved in dimethylsulfoxide (DMSO) and docetaxel was dissolved in ethanol as stock solutions. The final concentration of vehicle was less than 0.1%.
Cells were cultured in a 96 well cell culture cluster (COSTAR) at a density of 4×10^4 cells/ml. After drug treatment for 24 hours or 72 hours, medium was discarded and replaced with an equal volume (100 μl) of fresh medium containing MTT (0.456 mg/ml; 3-[4,5-Dimethylthiazol-2-yl]2,5-diphenyl-tetrazolium bromide) and incubated for 1.5 hours at 37° C. The fresh medium was then discarded, and 100 μl DMSO was then added. Cell viability was determined by colorimetric comparison by reading OD values from a microplate reader (SPECTRA MAX250) at an absorption wavelength of 570 nm.
Data are the mean i standard error of mean from duplicate samples of three independent experiments.

[3] = system: HA22T/VGH cells; test: Propidium iodide (PI) exclusion assay, flow cytometry; type: cell-based, human
Protocol: (§1) Cells were grown on 5-cm^2 flasks (CORNING) and treated with paclitaxel and docetaxel as set out above. Propidium iodide (10 μg/ml) was then added for 15 minutes incubation at 37° C. Then, medium was collected prior to harvest of the adherent cells. Both suspended and attached cells were collected and resuspended with 500 μl PBS for flow cytometry analysis as set out below. Debris signals were removed by FSC-SSC gating.
(§2) Cells (10000) were analyzed on a Becton Dickinson FACS Calibur flow cytometer using an argon-ion laser (15 mWatt) with incident beam at 488 nm. For PI exclusion assay, red fluorescence was collected through a 585 nm filter and the cell debris signals were removed by FSC-SSC gating. Data were acquired and analyzed using FACS/CELL Quest software on a Power Macintosh 7600/120 computer. Apoptotic cells and cells at specific cycle phases were determined by ModFit LT software.
(§3) Data are mean±standard error of mean from duplicated sample of at least three independent experiments. Cells were treated with drugs for 24-72 hours, and membrane permeability was measured by flowcytometric analysis of propidium exclusion in viable hepatoma cells. Data are the percentage of cells with intact cell membrane as compared to control

[4] = system: Hep 3B cells; test: as above; type: cell-based, human
Protocol: as §1, §2, §3

[5] = system: Hep G2 cells; test: as above; type: cell-based, human
Protocol: as §1, §2, §3

[6] = system: Hepa 1-6 cells; test: as above; type: cell-based, murine
Protocol: as §1, §2, §3

[7] = system: HA22T/VGH cells; test: Flow cytometric analysis of DNA content (cell cycle, sub-G0/G1); type: cell-based, human; settings: for % of apoptotic (sub-G0/G1) cells: 72 hrs
Protocol: (§4) Lysing buffer (0.5% Triton X-100, 0.2 μg/ml Na2EDTA.2H2O, and 1% bovine serum albumin in PBS) was added to the cell pellets which were then left on ice for 15 minutes. 100% methanol pre-cooled to −20° C. was then added to the mixture, which was then centrifuged at 300×g for 5 minutes. The supernatant was discarded and the cell pellet was washed with PBS. The washed pellet was stained with a DNA staining solution (50 μg/ml propidium iodide, and 5 kunitz/ml of RNase A) for 30 minutes at 4° C. in the dark. The DNA content of each cell was measured using a Becton Dickinson FACS Calibur flow cytometer as set out below.
as §2
(§5) Table 1 gives figures for cell membrane permeability of the hepatoma cells, following treatment with paclitaxel and docetaxel. Table 2 details the percentage of apoptotic (sub-G0/G1) cells found after paclitaxel and docetaxel treatment.

[8] = system: Hep 3B cells; test: as above; type: cell-based, human; settings: for % of apoptotic (sub-G0/G1) cells: 72 hrs
Protocol: as §4, §2, §5

[9] = system: Hep G2 cells; test: as above; type: cell-based, human; settings: Hep G2, 1 μM, 24 hours
Protocol: as §4, §2, §5

[10] = system: Hepa 1-6 cells; test: as above; type: cell-based, murine; settings: for % of apoptotic (sub-G0/G1) cells: Hepa 1-6, 24 hrs
Protocol: as §4, §2, §5

[11] = system: Hep G2 cells; test: DNA fragmentation electrophoresis analysis; type: cell-based, human; settings: Hep G2, 0.1 and 1 μM, 72 hours
Protocol: DNA fragmentation assessment was according to the method Herrmann et al, Nucleic Acids Res., 22, 5506-5507, 1994.
Briefly, HEP G2 cells (2×10^7) were treated for 72 hours with paclitaxel and docetaxel as set out above and centrifuged. The thus obtained cell pellets were resuspended with NP-40 lysis buffer (1% NP-40 in 20 mM EDTA, 50 mM Tris-HCl, pH 7.5). After lysis of cells for a few seconds, the supernatants were collected (5 minutes at 1600×g). The extraction was repeated with the same lysis buffer. SDS (final concentration 1%) and RNase were added (final concentration 2.5 μg/μl) to supernatants and incubated for 2 hours at 56° C. followed by digestion with proteinase K (2.5 μg/μl) for 2 hours at 37° C. Then, the mixtures were added to 10 M ammonium acetate prior to 100% ethanol precipitation for 30 minutes at −20° C. The DNA was collected by centrifugation (10 min at 12000 ×g) followed by electrophoresis on 1.5% agarose gel.
In FIG. 3, M is a 100 base pair marker. […] Lanes 2 and 3 show mean paclitaxel (0.1 and 1 μM) treatment groups. Lanes 4 and 5 show mean docetaxel (0.1 and 1 μM) treatment groups.

[12] = system: hepatocellular carcinoma; settings: phase II clinical trial; cited from earlier work

COc1cc2c(cc1O)CC[C@@H]1[C@@H]2CC[C@]2(C)[C@@H](O)CC[C@@H]12 [2-methoxyestradiol]
tolerability ([1]; mice, 1 month of daily treatment): well tolerated
activity against hepatocellular carcinomas ([1]; mouse, in vivo): active

CC(=O)O[C@H]1C(=O)[C@@]2(C)[C@H]([C@H](OC(=O)c3ccccc3)[C@]3(O)C[C@H](OC(=O)[C@H](O)[C@@H](NC(=O)c4ccccc4)c4ccccc4)C(C)=C1C3(C)C)[C@]1(OC(C)=O)CO[C@@H]1C[C@@H]2O [Paclitaxel]
viability at 10 µM ([2]; 24 hours): 61.8%
viability at 10 µM ([2]; 72 hours): 39.5%
percentage of cells with intact cell membrane as compared to control ([3]; 24 hrs, 0.01 μM): 94.08 ± 18.6%
percentage of cells with intact cell membrane as compared to control ([3]; 24 hrs, 0.1 μM): 40.03 ± 7.8%
percentage of cells with intact cell membrane as compared to control ([3]; 24 hrs, 1 μM): 34.24 ± 8.3%
percentage of cells with intact cell membrane as compared to control ([3]; 72 hrs, 0.01 μM): 92.58 ± 21.3%
percentage of cells with intact cell membrane as compared to control ([3]; 72 hrs, 0.01 μM, listed as paclitaxel): 92.58%
percentage of cells with intact cell membrane as compared to control ([3]; 72 hrs, 0.1 μM): 93.38 ± 32.5%
percentage of cells with intact cell membrane as compared to control ([3]; 72 hrs, 1 μM): 49.32 ± 8.3%
percentage of cells with intact cell membrane as compared to control ([4]; 24 hrs, 0.01 μM): 77.35 ± 11.7%
percentage of cells with intact cell membrane as compared to control ([4]; 24 hrs, 0.1 μM): 63.50 ± 4.0%
percentage of cells with intact cell membrane as compared to control ([4]; 24 hrs, 1 μM): 52.28 ± 4.1%
percentage of cells with intact cell membrane as compared to control ([4]; 72 hrs, 0.01 μM): 57.00 ± 7.9%
percentage of cells with intact cell membrane as compared to control ([4]; 72 hrs, 0.1 μM): 8.09 ± 2.3%
percentage of cells with intact cell membrane as compared to control ([4]; 72 hrs, 1 μM): 1.90 ± 0.3%
percentage of cells with intact cell membrane as compared to control ([5]; Hep G2, 24 hrs, 0.01 μM): 93.63 ± 1.1%
percentage of cells with intact cell membrane as compared to control ([5]; Hep G2, 24 hrs, 0.1 μM): 85.71 ± 6.8%
percentage of cells with intact cell membrane as compared to control ([5]; Hep G2, 24 hrs, 1 μM): 66.71 ± 7.2%
percentage of cells with intact cell membrane as compared to control ([5]; Hep G2, 72 hrs, 0.01 μM): 56.58 ± 28.7%
percentage of cells with intact cell membrane as compared to control ([5]; Hep G2, 72 hrs, 0.1 μM): 43.79 ± 11.7%
percentage of cells with intact cell membrane as compared to control ([5]; Hep G2, 72 hrs, 1 μM): 13.27 ± 4.3%
percentage of cells with intact cell membrane as compared to control ([6]; Hepa 1-6, 24 hrs, 0.01 μM): 93.17 ± 3.8%
percentage of cells with intact cell membrane as compared to control ([6]; Hepa 1-6, 24 hrs, 0.1 μM): 67.20 ± 4.4%
percentage of cells with intact cell membrane as compared to control ([6]; Hepa 1-6, 24 hrs, 1 μM): 62.65 ± 7.6%
percentage of cells with intact cell membrane as compared to control ([6]; Hepa 1-6, 72 hrs, 0.01 μM): 62.95 ± 5.6%
percentage of cells with intact cell membrane as compared to control ([6]; Hepa 1-6, 72 hrs, 0.1 μM): 27.79 ± 1.3%
percentage of cells with intact cell membrane as compared to control ([6]; Hepa 1-6, 72 hrs, 1 μM): 15.51 ± 1.0%
% of apoptotic (sub-G0/G1) cells ([7]; 0.1 mM (table head; text: μM)): 0%
% of apoptotic (sub-G0/G1) cells ([7]; 0.1 mM (table head; text: μM), listed as paclitaxel): No significant sub-G0/G1 population
% of apoptotic (sub-G0/G1) cells ([7]; 1 mM (table head; text: μM)): 0%
% of apoptotic (sub-G0/G1) cells ([7]; 1 mM (table head; text: μM), listed as paclitaxel): No significant sub-G0/G1 population
effect on cell cycle progression ([7]; increasing concentrations 0.001 μM to 1 μM, 24 hours): elevated percentage of G2/M cells
effect on cell cycle progression ([8]; 0.1 μM or 1 μM, 24 hours): G2/M arrest
% of apoptotic (sub-G0/G1) cells ([8]; 0.1 mM (text: μM)): 38.37%
% of apoptotic (sub-G0/G1) cells ([8]; 1 mM (text: μM)): 47.01%
effect on cell cycle progression (DNA histogram) [9]: obvious G2/M phase arrest
effect on cell cycle progression ([10]; Hepa 1-6, 0.1 μM and 1 μM, 24 hours): G2/M phase arrest
cell cycle profile ([10]; Hepa 1-6, 0.1 μM and 1 μM, 72 hours): most of the cells were dead
% of apoptotic (sub-G0/G1) cells ([10]; 0.01 mM (text: μM)): 24.02%
% of apoptotic (sub-G0/G1) cells ([10]; 0.1 mM (text: μM)): 55.64%
% of apoptotic (sub-G0/G1) cells ([10]; 1 mM (text: μM)): 64.38%
DNA fragmentation (agarose gel, FIG. 3) [11]: induced DNA fragmentation
anti-cancer effect in HCC patients [12]: no significant anti-cancer effect

Source: patent publication US20080045584A1, “Use of Docetaxel for Treating Hepatocellular Carcinoma” (priority 1999, published 2008)
